Measured values from ChEMBL document CHEMBL1140394, “Inhibition of Src kinase activity by 7-[(2,4-dichloro-5-methoxyphenyl)amino]-2-heteroaryl-thieno[3,2-b]pyridine-6-carbonitriles” (Bioorg Med Chem Lett, 2005).

Tests used:
[1] = target: T1, Proto-oncogene tyrosine-protein kinase Src (Homo sapiens, UniProt P12931); assay: Inhibitory activity against non-receptor tyrosine kinase Src in enzyme assay
[2] = target: Serine/threonine-protein kinase AKT (Homo sapiens, UniProt P31751+Q9Y243+P31749); assay: Inhibitory activity against AKT; assay type: functional
[3] = target: Inhibitor of NF-kappa-B kinase (IKK) (Homo sapiens, UniProt O14920+O15111+Q9Y6K9); assay: Inhibitory activity against IKK; assay type: functional
Inhibitor of NF-kappa-B kinase (IKK), sequence (O14920 whole entry): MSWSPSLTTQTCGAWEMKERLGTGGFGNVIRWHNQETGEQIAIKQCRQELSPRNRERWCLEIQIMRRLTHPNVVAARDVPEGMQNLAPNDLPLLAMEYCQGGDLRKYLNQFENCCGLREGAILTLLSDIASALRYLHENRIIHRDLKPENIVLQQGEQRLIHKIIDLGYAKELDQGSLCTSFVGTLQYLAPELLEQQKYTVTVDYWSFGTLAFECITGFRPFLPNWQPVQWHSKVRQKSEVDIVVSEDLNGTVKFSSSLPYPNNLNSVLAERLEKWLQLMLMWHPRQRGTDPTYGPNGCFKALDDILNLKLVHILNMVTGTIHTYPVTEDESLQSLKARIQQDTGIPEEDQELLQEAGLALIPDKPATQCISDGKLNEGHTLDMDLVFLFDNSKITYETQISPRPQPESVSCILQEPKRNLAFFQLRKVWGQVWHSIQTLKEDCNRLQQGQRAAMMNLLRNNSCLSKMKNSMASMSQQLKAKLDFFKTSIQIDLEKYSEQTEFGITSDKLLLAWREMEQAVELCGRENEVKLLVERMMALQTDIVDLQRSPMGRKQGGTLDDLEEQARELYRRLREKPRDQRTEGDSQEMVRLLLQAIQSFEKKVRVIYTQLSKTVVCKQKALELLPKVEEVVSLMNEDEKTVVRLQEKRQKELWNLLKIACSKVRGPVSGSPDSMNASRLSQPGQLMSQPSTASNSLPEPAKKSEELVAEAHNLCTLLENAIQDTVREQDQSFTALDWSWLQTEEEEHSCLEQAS
Inhibitor of NF-kappa-B kinase (IKK), sequence (O15111 whole entry): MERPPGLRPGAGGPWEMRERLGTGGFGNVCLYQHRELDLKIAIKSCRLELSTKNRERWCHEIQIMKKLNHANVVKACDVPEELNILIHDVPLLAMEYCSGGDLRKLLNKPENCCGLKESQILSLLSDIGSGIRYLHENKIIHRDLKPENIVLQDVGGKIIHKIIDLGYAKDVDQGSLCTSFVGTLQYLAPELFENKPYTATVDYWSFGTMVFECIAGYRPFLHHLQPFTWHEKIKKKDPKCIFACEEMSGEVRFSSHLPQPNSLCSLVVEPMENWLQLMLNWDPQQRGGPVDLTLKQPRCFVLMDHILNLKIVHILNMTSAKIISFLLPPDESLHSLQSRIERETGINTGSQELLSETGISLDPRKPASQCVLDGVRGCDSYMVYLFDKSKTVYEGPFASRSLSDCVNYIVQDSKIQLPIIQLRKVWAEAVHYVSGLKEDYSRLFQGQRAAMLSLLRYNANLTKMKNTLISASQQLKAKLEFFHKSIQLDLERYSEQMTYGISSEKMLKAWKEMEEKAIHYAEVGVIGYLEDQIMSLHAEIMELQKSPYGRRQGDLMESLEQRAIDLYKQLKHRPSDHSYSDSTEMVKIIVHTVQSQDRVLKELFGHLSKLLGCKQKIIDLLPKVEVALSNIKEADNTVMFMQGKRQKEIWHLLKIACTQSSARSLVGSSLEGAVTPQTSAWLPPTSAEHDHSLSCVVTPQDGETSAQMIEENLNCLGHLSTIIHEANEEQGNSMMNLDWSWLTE
Inhibitor of NF-kappa-B kinase (IKK), sequence (Q9Y6K9 whole entry): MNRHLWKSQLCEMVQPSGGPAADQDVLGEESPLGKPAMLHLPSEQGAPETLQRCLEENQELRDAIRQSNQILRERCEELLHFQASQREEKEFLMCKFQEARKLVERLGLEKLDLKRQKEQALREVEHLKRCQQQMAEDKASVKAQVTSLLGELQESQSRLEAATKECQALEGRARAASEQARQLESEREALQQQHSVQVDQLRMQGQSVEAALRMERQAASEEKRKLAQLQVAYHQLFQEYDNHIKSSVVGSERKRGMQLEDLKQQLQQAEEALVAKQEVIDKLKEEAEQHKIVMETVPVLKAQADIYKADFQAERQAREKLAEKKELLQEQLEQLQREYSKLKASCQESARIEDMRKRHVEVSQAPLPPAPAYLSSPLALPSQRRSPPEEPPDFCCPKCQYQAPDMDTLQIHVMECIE

[4] = target: Cyclin-dependent kinase 4 (Homo sapiens, UniProt P11802); assay: Inhibitory activity against CDK4; assay type: functional
Cyclin-dependent kinase 4, sequence (P11802 whole entry): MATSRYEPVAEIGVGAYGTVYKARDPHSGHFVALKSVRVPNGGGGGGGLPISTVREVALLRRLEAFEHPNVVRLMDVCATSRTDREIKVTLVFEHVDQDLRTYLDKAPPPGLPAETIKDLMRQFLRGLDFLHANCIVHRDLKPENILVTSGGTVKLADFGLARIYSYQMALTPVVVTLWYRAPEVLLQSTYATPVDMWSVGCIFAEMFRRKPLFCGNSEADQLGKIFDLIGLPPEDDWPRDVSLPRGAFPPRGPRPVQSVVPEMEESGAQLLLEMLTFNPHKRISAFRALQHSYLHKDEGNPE

[5] = target: T2, 3-phosphoinositide-dependent protein kinase 1 (Homo sapiens, UniProt O15530); assay: Inhibitory activity against PDK1; assay type: functional
T2 sequence (O15530 whole entry): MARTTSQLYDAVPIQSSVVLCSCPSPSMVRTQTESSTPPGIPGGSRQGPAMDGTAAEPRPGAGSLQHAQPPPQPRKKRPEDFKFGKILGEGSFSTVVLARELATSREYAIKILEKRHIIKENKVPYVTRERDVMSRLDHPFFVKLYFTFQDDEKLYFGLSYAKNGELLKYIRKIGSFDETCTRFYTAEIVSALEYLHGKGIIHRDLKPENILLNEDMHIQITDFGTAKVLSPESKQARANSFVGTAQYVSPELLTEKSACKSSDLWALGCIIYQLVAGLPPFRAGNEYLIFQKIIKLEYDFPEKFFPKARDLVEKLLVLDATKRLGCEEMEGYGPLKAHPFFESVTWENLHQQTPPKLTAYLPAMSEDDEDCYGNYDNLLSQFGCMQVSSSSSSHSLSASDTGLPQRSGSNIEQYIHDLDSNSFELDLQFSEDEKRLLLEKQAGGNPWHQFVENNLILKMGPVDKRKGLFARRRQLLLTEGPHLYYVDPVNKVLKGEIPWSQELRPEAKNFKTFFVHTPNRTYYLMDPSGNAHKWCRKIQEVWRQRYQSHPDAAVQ

[6] = target: Serine/threonine-protein kinase RAF and Dual specificity mitogen-activated protein kinase kinase 1 (Raf/MEK) (Homo sapiens, UniProt P04049+Q02750); assay: Inhibitory activity against Raf/MEK; assay type: functional
[7] = target: T1, Proto-oncogene tyrosine-protein kinase Src; assay: Inhibitory activity against non-receptor tyrosine kinase Src in cell assay; assay type: functional

T1 sequence (P12931 2-536 limits assumed): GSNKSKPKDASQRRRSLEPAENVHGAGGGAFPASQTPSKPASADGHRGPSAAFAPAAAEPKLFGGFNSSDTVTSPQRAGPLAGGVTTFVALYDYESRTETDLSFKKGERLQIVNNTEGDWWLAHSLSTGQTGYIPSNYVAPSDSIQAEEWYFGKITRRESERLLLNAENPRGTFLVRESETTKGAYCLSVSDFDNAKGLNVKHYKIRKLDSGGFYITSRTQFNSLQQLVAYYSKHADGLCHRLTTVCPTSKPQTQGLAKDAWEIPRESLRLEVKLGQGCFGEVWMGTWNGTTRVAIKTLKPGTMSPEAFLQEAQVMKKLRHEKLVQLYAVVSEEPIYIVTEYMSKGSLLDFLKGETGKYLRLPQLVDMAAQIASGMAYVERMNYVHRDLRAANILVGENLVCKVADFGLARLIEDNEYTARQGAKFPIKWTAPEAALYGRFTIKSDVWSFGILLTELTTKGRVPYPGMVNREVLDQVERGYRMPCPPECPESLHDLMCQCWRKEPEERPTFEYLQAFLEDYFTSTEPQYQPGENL

IC50 [1]: 13 nM
IC50 [2]: > 10000 nM
IC50 [3]: > 10000 nM
IC50 [4]: > 10000 nM
IC50 [5]: > 10000 nM
IC50 [6]: 1600 nM
IC50 [7]: 420 nM
Structure (SMILES): COc1cc(Nc2c(C#N)cnc3cc(-c4ccc(CN5CCN(C)CC5)cn4)sc23)c(Cl)cc1Cl
